*1 amine or outer side, *2 acyl side, *3 side chain or, on linkers, in order; H or OH if unused. Where a SMILES comes first, the peptide text is derived from it. Side-chain parts run from the residue outwards. [ ]: non-standard residue; d: D form. The star is where a group is joined. C20 diacid = O=C(O)CCCCCCCCCCCCCCCCCCC(=O)*; γGlu = O=C(O)[C@H](CCC(=O)[*:2])N[*:1]; αMeL = CC(C)C[C@](C)(N)C(=O)O; AEEA = NCCOCCOCC(=O)O; Aib = CC(C)(N)C(=O)O
Tests used:
[1] = tested on: CD4+ T cells (CD8+ T cell-depleted PBMCs); assay: CD4+ T cell proliferation assay (immunogenicity assessment); format: cell-based, human; conditions: 0.33 μM, 7 days
Protocol: Protein therapeutics that induce less than 30% positive response in the CD4+ T cell proliferation assay are associated with a low risk of immunogenicity. Briefly, to assess the propensity for a clinical immunogenic response to the compounds of Examples 1, 2, 3, 5, and 6, CD8+ T cell-depleted peripheral blood mononuclear cells (PBMCs) are prepared and labeled with carboxyfluorescein diacetate succinimidyl ester (CFSE; Invitrogen) from a cohort of 10 healthy donors with diverse human leukocyte antigen (HLA) class II haplotypes. Each donor is tested in triplicate with 2.0 mL media control, keyhole limpet hemocyanin (KLH: 0.33 μM), and the compounds of Examples 1, 2, 3, 5, and 6 (0.33 μM). Cultures are incubated for 7 days at 37° C. with 5% CO2. On day 7, samples are analyzed by flow cytometry using a BD LSR II Fortessa (Becton Dickinson; Franklin Lakes, NJ), equipped with a high throughput sampler (HTS). Data is analyzed using FlowJo® Software (FlowJo, LLC/TreeStar; Ashland, OR).
• Cell Division Index (“CDI”): proportion of divided CD4+ T cells to the total number of CD4+ T cells in stimulated versus unstimulated samples.

[2] = target: T1, human GIPR (Homo sapiens, UniProt P48546); assay: [125I]-GIP binding, SPA with WGA beads, 0.1% bacitracin; conditions: geometric mean, read-out: hGIPR Ki
T1 construct: expressed in transfected cells; crude membranes
T1 sequence (P48546 22-466): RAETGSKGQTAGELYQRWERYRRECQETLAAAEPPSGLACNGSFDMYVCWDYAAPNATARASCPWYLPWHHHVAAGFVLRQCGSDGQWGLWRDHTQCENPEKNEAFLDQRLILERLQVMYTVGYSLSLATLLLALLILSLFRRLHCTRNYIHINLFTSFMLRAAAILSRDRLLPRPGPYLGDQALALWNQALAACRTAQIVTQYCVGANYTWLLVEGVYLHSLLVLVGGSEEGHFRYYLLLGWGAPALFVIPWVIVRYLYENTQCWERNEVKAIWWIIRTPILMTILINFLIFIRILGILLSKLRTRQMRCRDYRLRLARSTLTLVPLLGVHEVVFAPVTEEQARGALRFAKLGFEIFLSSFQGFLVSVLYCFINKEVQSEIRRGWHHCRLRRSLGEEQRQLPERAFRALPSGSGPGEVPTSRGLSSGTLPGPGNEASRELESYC
Protocol: (§1) Stably transfected cell lines are prepared by subcloning receptor cDNA into a pcDNA3 expression plasmid and transfected into human embryonic kidney (HEK) 293 (hGcgR and hGLP-1R) or Chinese Hamster Ovary (CHO) (hGIPR) cells followed by selection with Geneticin (hGLP-1R and hGIPR) or hygromycin B (hGcgR).
(§2) Two methods are used for the preparation of crude cell membranes.
(§3) Method 1: Frozen cell pellets are lysed on ice in hypotonic buffer containing 50 mM Tris HCl, pH 7.5, and Roche Complete™ Protease Inhibitors with EDTA. The cell suspension is disrupted using a glass Potter-Elvehjem homogenizer fitted with a Teflon® pestle for 25 strokes. The homogenate is centrifuged at 4° C. at 1100× g for 10 minutes. The supernatant is collected and stored on ice while the pellets are resuspended in homogenization buffer and rehomogenized as described above. The homogenate is centrifuged at 1100× g for 10 minutes. The second supernatant is combined with the first supernatant and centrifuged at 35000× g for 1 hour at 4° C. The resulting membrane pellet is resuspended in homogenization buffer containing protease inhibitors at approximately 1 to 3 mg/mL, quick frozen in liquid nitrogen and stored as aliquots in a −80° C. freezer until use.
(§4) Method 2: Frozen cell pellets are lysed on ice in hypotonic buffer containing 50 mM Tris HCl, pH 7.5, 1 mM MgCl2, Roche Complete™ EDTA-free Protease Inhibitors and 25 units/mL DNAse I (Invitrogen). The cell suspension is disrupted using a glass Potter-Elvehjem homogenizer fitted with a Teflon® pestle for 20 to 25 strokes. The homogenate is centrifuged at 4° C. at 1800× g for 15 minutes. The supernatant is collected and stored on ice while the pellets are resuspended in homogenization buffer (without DNAse I) and rehomogenized as described above. The homogenate is centrifuged at 1800× g for 15 minutes. The second supernatant is combined with the first supernatant and centrifuged an additional time at 1800× g for 15 minutes. The overall supernatant is then centrifuged at 25000× g for 30 minutes at 4° C. The resulting membrane pellet is resuspended in homogenization buffer (without DNAse I) containing protease inhibitors at approximately 1 to 3 mg/mL and stored as aliquots in a −80° C. freezer until use.
The binding buffer contains 25 mM HEPES, pH 7.4, 2.5 mM CaCl2), 1 mM MgCl2, 0.1% (w/v) bacitracin, 0.003% (w/v) TWEEN®-20, and Roche Complete™ Protease Inhibitors without EDTA. […] Plates are sealed and mixed on a plate shaker (setting 6) for 1 minute and read with a PerkinElmer Trilux MicroBeta® scintillation counter after 2.5 to 12 hours of incubation/settling time at room temperature.
(§5) Data are analyzed using four-parameter (curve maximum, curve minimum, IC50, Hill slope) nonlinear regression routines (Genedata Screener, version 12.0.4, Genedata AG, Basal, Switzerland). […] Values for Ki are reported as the geometric mean, with error expressed as the standard error of the mean (SEM) and n is equal to the number of independent replicates (determined in assays performed on different days). […] SEM is only calculated when […] or greater. Means are expressed as geometric means with the standard error of the mean (SEM) and the number of replicates (n) indicated in parentheses.

[3] = target: T2, human glucose-dependent insulinotropic peptide receptor (GIPR) (Homo sapiens, UniProt P48546); assay: cAMP functional assay (HTRF) in HEK293 cells in presence of 0.1% casein; format: cell-based; conditions: HEK293 cells expressing human GIPR, geometric mean, read-out: hGIPR cAMP Rel EC50 nM (SEM, n)
T2 construct: expressed in transfected cells; host or cells: HEK293
T2 sequence (P48546 22-466): T1 sequence (P48546 22-466)
Protocol: (§6) Each receptor over-expressing cell line (20 μl) is treated with the test peptide in DMEM (Gibco Cat #31053) supplemented with 0.1% Casein (Sigma Cat #C4765), 250 μM IBMX, 1× GlutaMAX™ (Gibco Cat #35050), and 20 mM HEPES (HyClone Cat #SH30237.01) in a 20 μl assay volume. After incubating for 60 minutes at room temperature, the resulting increase in intracellular CAMP is quantitatively determined using the CisBio CAMP Dynamic 2 HTRF Assay Kit (62AM4PEJ). The Lysis buffer containing cAMP-d2 conjugate (20 μl) and the antibody anti-cAMP-Eu3+-Cryptate (20 μl) are then added to determine the cAMP level. After incubating 60 minutes at room temperature, HTRF signal is detected with an Envision 2104 plate reader (PerkinElmer). Fluorescent emission at 620 nm and at 665 nm is measured and the ratio between 620 nm and at 665 nm is calculated and then are converted to nM cAMP per well using a cAMP standard curve. Dose response curves of compounds are plotted as the percentage of stimulation normalized to minimum (buffer only) and maximum (maximum concentration of each control ligand) values and analyzed using a four parameter non-linear regression fit with a variable slope (Genedata Screener 13). EC50 is the concentration of compound causing half-maximal simulation in a dose response curve. A relative EC50 value is derived by non-linear regression analysis using the percent maximal response vs, the concentration of peptide added, fitted to a four-parameter logistic equation.
(§7) Intracellular cAMP levels are determined by extrapolation using a standard curve. Dose response curves of compounds are plotted as the percentage of stimulation normalized to minimum (buffer only) and maximum (maximum concentration of each control ligand) values and analyzed using a four-parameter non-linear regression fit with a variable slope (Genedata Screener 13). EC50 is the concentration of compound causing half-maximal simulation in a dose response curve. Each relative EC50 value for the geometric mean calculation is determined from a curve fitting.
(§8) Concentration response curves of compounds are plotted as the percentage of stimulation normalized to minimum (buffer only) and maximum (maximum concentration of each control ligand) values and analyzed using a four-parameter non-linear regression fit with a variable slope (Genedata Screener 13). EC50 is the concentration of compound causing half-maximal simulation in a dose response curve. […] The standard error of the mean is reported:
(§9) [formula] • The log transform accounts for the EC50 values falling on a multiplicative, rather than an arithmetic scale.
(§10) For illustration, as shown by Example 1, the peptide is tested in 8 runs of the hGIPR CAMP assay. […] Accordingly, each Example will use the geometric mean of those values to normalize the Example assay runs.

[4] = target: T3, human glucagon receptor (GcgR) (Homo sapiens, UniProt P47871); assay: as above; format: cell-based; conditions: HEK293 cells expressing human GcgR, geometric mean, read-out: hGcgR cAMP Rel EC50 nM (SEM, n)
T3 construct: expressed in transfected cells; host or cells: HEK293
Protocol: as §6, §7, §8, §9, §10

[5] = target: T4, human GLP-1 receptor (GLP-1R) (Homo sapiens, UniProt P43220); assay: as above; format: cell-based; conditions: HEK293 cells expressing human GLP-1R, geometric mean, read-out: hGLP1R cAMP Rel EC50 nM (SEM, n)
T4 construct: expressed in transfected cells; host or cells: HEK293
Protocol: as §6, §7, §8, §9, §10

[6] = target: T5, human GLP-1R (Homo sapiens, UniProt P43220); assay: [125I]-GLP-1 binding, SPA with WGA beads, 0.1% bacitracin; conditions: geometric mean, read-out: hGLP1R Ki
T5 construct: expressed in transfected cells; crude membranes
Protocol: as §1, §2, §3, §4
The binding buffer contains 25 mM HEPES, pH 7.4, 2.5 mM CaCl2), 1 mM MgCl2, 0.1% (w/v) bacitracin, 0.003% (w/v) TWEEN®-20, and Roche Complete™ Protease Inhibitors without EDTA.
as §5

T3 sequence (P47871 26-477): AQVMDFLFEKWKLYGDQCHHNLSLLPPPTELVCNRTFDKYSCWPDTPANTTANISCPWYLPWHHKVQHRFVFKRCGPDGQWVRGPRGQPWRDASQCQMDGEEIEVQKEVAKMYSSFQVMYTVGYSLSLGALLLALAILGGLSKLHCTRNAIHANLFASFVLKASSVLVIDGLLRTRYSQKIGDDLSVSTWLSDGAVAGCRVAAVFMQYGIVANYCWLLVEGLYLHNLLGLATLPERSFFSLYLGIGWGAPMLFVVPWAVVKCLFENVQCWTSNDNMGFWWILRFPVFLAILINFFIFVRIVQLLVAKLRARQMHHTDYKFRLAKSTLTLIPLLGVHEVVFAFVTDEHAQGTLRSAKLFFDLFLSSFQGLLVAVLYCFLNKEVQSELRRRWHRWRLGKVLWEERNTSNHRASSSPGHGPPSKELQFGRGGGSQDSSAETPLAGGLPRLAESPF
T4 sequence (P43220 24-463): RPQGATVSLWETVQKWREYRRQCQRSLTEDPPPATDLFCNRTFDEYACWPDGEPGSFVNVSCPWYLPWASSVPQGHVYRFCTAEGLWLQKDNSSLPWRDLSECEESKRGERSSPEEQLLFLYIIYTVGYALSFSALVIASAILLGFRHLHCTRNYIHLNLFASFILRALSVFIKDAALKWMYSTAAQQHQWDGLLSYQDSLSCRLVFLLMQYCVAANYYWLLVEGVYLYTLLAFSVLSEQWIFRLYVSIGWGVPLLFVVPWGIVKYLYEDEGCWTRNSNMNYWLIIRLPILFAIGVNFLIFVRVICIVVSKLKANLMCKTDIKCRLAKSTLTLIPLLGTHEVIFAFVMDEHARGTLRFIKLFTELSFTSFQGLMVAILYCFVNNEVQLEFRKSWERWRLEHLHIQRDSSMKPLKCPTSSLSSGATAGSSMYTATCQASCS
T5 sequence (P43220 24-463): as above

Compound | % Donor Response (n = 10) ([1]; 10 healthy donors, positive response CDI>2.5) [%] | Median Response Strength in positive donors (CDI) ([1]; Cell Division Index) | Ki [2] [nM] | EC50 [3] [nM] | EC50 [4] [nM] | EC50 [5] [nM] | Ki [6] [nM]
keyhole limpet hemocyanin [KLH, reference compound] | 100 | 164.285 (n = 10) |  |  |  |  | 
CC[C@H](C)[C@H](NC(=O)[C@H](CCCCN)NC(=O)[C@H](CC(=O)O)NC(=O)[C@H](CC(C)C)NC(=O)[C@](C)(CC(C)C)NC(=O)[C@@H](NC(=O)[C@H](CO)NC(=O)[C@H](Cc1ccc(O)cc1)NC(=O)[C@H](CC(=O)O)NC(=O)[C@H](CO)NC(=O)[C@@H](NC(=O)[C@H](Cc1ccccc1)NC(=O)[C@@H](NC(=O)CNC(=O)[C@H](CCC(=O)O)NC(=O)C(C)(C)NC(=O)[C@@H](N)Cc1ccc(O)cc1)[C@@H](C)O)[C@@H](C)CC)[C@@H](C)CC)C(=O)N[C@@H](CCCNC(=N)N)C(=O)N[C@@H](CCC(N)=O)C(=O)NC(C)(C)C(=O)N[C@@H](CC(=O)O)C(=O)N[C@@H](Cc1ccccc1)C(=O)N[C@H](C(=O)N[C@@H](CCC(=O)O)C(=O)N[C@@H](Cc1ccc(O)cc1)C(=O)N[C@@H](CCCCNC(=O)COCCOCCNC(=O)COCCOCCNC(=O)CC[C@H](NC(=O)CCCCCCCCCCCCCCCCCCC(=O)O)C(=O)O)C(=O)N[C@@H](CC(C)C)C(=O)N[C@@H](CCC(=O)O)C(=O)N[C@@H](C)C(=O)NCC(=O)N1CCC[C@H]1C(=O)N[C@@H](CO)C(=O)N[C@@H](CO)C(=O)NCC(=O)N[C@@H](C)C(=O)N1CCC[C@H]1C(=O)N1CCC[C@H]1C(=O)N1CCC[C@H]1C(=O)N[C@@H](CO)C(N)=O)C(C)C [Example 118] (H-Y[Aib]EGTFISDYSI[αMeL]LDKIRQ[Aib]DFVEYK([AEEA-AEEA-γGlu-C20 diacid])LEAGPSSGAPPPS-NH2) |  |  | 0.0696 | 0.0611 | > 5000 | > 5000 | > 920
CC[C@H](C)[C@H](NC(=O)[C@H](Cc1ccccc1)NC(=O)[C@@H](NC(=O)CNC(=O)[C@H](CCC(=O)O)NC(=O)C(C)(C)NC(=O)[C@@H](N)Cc1ccc(O)cc1)[C@@H](C)O)C(=O)N[C@@H](CO)C(=O)N[C@@H](CC(=O)O)C(=O)N[C@@H](Cc1ccc(O)cc1)C(=O)N[C@@H](CO)C(=O)N[C@H](C(=O)N[C@@](C)(CC(C)C)C(=O)N[C@@H](CC(C)C)C(=O)N[C@@H](CC(=O)O)C(=O)N[C@@H](CCCCN)C(=O)N[C@@H](CCCCNC(=O)COCCOCCNC(=O)COCCOCCNC(=O)CC[C@H](NC(=O)CCCCCCCCCCCCCCCCCCC(=O)O)C(=O)O)C(=O)N[C@@H](Cc1c[nH]cn1)C(=O)N[C@@H](CCC(N)=O)C(=O)NC(C)(C)C(=O)N[C@@H](CC(=O)O)C(=O)N[C@@H](Cc1ccccc1)C(=O)N[C@H](C(=O)N[C@@H](CCC(=O)O)C(=O)N[C@@H](Cc1ccc(O)cc1)C(=O)N[C@@H](CC(C)C)C(=O)N[C@@H](CC(C)C)C(=O)N[C@@H](CCC(=O)O)C(=O)N[C@@H](CCC(N)=O)C(=O)NCC(=O)N1CCC[C@H]1C(=O)N[C@@H](CO)C(=O)N[C@@H](CO)C(=O)NCC(=O)N[C@@H](C)C(=O)N1CCC[C@H]1C(=O)N1CCC[C@H]1C(=O)N1CCC[C@H]1C(=O)N[C@@H](CO)C(N)=O)C(C)C)[C@@H](C)CC [Example 67] (H-Y[Aib]EGTFISDYSI[αMeL]LDKK([AEEA-AEEA-γGlu-C20 diacid])HQ[Aib]DFVEYLLEQGPSSGAPPPS-NH2) |  |  |  | 0.0627 | > 5000 | > 5000 | 
